Results taken from the kinase profiling compilation of Christmann-Franck et al. (2016).

Key:
Assay in all cases: KINOMEscan competition binding
Details in all cases: compound 10.0 µM
[1] = biological target: STK39 (human) (UniProt Q9UEW8)
[2] = biological target: CAMK1D (human) (UniProt Q8IU85)
[3] = biological target: PIK3CA (human) (UniProt P42336)
[4] = test system: BMX (human), P51813 [V600E]
[5] = biological target: MAP4K4 (human) (UniProt O95819)
[6] = biological target: ULK2 (human) (UniProt Q8IYT8)
[7] = biological target: NUAK1 (human) (UniProt O60285)
[8] = biological target: SRC (human) (UniProt P12931)
[9] = biological target: MERTK (human) (UniProt Q12866)
[10] = biological target: TYK2 JH1 catalytic (human) (UniProt P29597)
[11] = biological target: RPS6KA2 KD2 (human) (UniProt Q15349)
[12] = biological target: MTOR (human) (UniProt P42345)
[13] = biological target: NTRK1 (human) (UniProt P04629)
[14] = biological target: FLT1 (human) (UniProt P17948)
[15] = biological target: YSK4 (human) (UniProt Q56UN5)
[16] = biological target: RPS6KA4 KD2 (human) (UniProt O75676)
[17] = biological target: MAP2K4 (human) (UniProt P45985)
[18] = biological target: MST4 (human) (UniProt Q9P289)
[19] = biological target: MAPK6 (human) (UniProt Q16659)
[20] = biological target: MARK3 (human) (UniProt P27448)
[21] = biological target: CLK1 (human) (UniProt P49759)
[22] = biological target: LIMK2 (human) (UniProt P53671)
[23] = biological target: DYRK1B (human) (UniProt Q9Y463)
[24] = biological target: STK10 (human) (UniProt O94804)
[25] = biological target: LATS1 (human) (UniProt O95835)
[26] = biological target: PAK4 (human) (UniProt O96013)
[27] = biological target: EPHA7 (human) (UniProt Q15375)
[28] = biological target: MAP2K7 (human) (UniProt O14733)
[29] = biological target: TEC (human) (UniProt P42680)
[30] = biological target: TNK2 (human) (UniProt Q07912)
[31] = biological target: CSNK2A1 (human) (UniProt P68400)
[32] = biological target: RPS6KA6 KD2 (human) (UniProt Q9UK32)
[33] = biological target: CDK2 (human) (UniProt P24941)
[34] = test system: PIK3CA (human), P42336 [E542K]
[35] = biological target: CSNK1A1L (human) (UniProt Q8N752)
[36] = biological target: MYLK3 (human) (UniProt Q32MK0)
[37] = biological target: EIF2AK2 (human) (UniProt P19525)
[38] = biological target: MAPK10 (human) (UniProt P53779)

Chain of STK10 (human) (O94804 whole entry, looked up): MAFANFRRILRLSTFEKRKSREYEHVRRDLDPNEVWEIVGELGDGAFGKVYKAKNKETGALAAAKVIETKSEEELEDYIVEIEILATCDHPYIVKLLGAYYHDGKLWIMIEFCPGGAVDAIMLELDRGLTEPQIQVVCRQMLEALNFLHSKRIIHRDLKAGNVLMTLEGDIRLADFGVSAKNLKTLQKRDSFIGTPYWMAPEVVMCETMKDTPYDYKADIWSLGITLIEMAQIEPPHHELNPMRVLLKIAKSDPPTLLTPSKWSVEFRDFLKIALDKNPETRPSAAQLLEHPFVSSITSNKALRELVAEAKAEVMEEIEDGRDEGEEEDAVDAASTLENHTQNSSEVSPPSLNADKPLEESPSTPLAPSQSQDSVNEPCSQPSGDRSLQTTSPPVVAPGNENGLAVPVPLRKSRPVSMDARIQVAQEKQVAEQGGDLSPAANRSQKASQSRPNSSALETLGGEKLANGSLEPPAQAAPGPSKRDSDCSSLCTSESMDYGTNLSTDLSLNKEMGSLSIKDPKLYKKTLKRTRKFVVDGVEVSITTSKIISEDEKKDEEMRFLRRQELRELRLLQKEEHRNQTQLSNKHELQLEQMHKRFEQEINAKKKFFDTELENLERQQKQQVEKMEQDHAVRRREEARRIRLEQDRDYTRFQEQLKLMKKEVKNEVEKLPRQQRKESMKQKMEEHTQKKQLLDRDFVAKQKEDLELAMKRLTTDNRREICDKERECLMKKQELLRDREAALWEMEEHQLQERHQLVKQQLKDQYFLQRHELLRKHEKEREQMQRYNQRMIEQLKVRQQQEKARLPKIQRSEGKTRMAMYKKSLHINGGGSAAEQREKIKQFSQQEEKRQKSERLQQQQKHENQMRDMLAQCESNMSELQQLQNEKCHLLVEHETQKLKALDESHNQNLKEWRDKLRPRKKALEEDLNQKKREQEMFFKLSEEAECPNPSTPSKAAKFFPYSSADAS
Chain of RPS6KA4 KD2 (human) (O75676 whole entry, looked up): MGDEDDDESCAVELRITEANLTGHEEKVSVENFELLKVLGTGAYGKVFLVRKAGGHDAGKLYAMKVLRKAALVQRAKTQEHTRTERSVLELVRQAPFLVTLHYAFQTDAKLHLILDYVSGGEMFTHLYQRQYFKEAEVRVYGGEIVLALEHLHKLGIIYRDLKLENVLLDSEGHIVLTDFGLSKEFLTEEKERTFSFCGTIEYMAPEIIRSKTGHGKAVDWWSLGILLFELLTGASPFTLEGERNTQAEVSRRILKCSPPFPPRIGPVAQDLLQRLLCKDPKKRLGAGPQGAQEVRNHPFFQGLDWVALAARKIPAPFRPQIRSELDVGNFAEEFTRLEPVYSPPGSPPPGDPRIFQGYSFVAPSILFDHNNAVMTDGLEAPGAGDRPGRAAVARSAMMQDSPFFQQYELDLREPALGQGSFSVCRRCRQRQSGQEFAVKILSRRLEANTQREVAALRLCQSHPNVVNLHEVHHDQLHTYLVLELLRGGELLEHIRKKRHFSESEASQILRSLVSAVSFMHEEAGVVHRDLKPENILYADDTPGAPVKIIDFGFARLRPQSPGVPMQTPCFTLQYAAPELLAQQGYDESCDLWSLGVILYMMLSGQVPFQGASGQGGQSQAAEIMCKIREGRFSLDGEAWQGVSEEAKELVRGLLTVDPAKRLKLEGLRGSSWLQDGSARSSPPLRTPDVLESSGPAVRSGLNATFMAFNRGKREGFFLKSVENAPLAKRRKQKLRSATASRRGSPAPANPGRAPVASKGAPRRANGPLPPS
Chain of MYLK3 (human) (Q32MK0 whole entry, looked up): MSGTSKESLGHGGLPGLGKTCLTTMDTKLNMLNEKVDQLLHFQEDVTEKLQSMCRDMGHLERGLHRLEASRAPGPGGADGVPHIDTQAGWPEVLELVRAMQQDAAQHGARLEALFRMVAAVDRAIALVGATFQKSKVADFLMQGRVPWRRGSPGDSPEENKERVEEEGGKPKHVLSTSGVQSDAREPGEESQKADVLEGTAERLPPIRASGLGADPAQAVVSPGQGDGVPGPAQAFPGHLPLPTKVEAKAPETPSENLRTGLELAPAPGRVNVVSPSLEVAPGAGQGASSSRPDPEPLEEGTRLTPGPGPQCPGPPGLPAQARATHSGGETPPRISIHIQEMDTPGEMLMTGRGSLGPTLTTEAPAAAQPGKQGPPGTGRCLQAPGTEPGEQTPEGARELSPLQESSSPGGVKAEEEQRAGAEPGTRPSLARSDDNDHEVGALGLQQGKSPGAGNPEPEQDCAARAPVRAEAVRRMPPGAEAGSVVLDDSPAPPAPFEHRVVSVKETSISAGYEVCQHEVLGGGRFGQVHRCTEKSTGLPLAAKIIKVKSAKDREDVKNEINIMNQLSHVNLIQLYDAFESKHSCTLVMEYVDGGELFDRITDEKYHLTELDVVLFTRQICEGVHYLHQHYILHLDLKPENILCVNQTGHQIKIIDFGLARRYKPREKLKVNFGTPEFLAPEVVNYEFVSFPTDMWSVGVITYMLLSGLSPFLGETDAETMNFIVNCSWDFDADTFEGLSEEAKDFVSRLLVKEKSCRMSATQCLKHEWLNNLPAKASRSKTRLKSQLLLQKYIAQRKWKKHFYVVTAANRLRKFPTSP
Chain of RPS6KA2 KD2 (human) (Q15349 whole entry, looked up): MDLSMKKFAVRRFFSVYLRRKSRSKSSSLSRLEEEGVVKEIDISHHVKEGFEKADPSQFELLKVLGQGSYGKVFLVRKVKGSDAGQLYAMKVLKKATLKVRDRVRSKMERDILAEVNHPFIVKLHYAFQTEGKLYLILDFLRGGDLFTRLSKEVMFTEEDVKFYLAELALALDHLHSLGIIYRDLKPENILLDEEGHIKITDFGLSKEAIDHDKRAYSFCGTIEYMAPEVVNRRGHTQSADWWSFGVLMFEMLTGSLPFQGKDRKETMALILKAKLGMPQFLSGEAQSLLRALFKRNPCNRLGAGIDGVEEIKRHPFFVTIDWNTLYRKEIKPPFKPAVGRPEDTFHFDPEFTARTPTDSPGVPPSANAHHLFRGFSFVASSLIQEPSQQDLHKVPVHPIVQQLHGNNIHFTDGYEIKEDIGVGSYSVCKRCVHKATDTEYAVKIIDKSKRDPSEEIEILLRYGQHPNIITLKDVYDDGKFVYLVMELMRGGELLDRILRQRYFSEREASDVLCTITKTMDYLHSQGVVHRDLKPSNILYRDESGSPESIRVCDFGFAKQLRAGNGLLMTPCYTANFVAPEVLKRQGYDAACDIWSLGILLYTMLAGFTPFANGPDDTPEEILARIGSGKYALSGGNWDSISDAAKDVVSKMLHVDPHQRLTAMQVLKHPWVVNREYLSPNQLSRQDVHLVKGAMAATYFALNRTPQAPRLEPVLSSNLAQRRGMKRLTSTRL
Chain of FLT1 (human) (P17948 whole entry, looked up): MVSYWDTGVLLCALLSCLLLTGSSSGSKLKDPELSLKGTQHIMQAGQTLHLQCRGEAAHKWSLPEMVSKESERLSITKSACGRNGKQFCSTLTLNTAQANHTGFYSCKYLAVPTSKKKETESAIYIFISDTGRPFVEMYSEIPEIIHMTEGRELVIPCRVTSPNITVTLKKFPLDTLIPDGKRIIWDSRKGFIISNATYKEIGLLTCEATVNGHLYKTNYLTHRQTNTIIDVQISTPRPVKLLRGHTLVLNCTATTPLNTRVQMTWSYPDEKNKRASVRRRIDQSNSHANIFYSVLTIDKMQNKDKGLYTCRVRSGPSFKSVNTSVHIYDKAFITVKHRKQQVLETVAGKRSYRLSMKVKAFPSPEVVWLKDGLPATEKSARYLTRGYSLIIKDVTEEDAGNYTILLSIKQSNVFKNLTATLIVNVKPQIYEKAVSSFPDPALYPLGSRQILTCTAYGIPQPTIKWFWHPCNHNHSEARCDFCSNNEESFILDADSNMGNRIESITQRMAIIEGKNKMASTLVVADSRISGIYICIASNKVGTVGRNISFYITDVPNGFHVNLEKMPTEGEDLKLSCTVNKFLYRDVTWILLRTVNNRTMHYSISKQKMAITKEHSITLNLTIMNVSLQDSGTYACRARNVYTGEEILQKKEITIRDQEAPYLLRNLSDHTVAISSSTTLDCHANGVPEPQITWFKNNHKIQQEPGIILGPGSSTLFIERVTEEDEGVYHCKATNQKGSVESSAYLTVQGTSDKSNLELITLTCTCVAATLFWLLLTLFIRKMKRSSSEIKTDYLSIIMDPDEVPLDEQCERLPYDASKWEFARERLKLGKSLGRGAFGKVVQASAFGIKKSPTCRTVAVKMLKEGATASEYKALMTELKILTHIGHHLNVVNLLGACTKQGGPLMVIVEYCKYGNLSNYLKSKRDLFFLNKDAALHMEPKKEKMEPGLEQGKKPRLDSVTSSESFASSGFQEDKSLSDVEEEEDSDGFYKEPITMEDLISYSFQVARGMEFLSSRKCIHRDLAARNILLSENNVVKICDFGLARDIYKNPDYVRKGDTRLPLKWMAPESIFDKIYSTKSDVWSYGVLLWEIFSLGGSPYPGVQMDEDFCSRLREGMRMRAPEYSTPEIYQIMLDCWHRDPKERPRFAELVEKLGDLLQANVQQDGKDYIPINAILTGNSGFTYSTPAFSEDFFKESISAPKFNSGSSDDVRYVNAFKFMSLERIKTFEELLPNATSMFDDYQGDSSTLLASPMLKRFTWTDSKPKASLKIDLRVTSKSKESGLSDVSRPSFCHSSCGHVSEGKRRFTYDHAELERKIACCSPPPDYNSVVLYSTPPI
Chain of MAP2K7 (human) (O14733 whole entry, looked up): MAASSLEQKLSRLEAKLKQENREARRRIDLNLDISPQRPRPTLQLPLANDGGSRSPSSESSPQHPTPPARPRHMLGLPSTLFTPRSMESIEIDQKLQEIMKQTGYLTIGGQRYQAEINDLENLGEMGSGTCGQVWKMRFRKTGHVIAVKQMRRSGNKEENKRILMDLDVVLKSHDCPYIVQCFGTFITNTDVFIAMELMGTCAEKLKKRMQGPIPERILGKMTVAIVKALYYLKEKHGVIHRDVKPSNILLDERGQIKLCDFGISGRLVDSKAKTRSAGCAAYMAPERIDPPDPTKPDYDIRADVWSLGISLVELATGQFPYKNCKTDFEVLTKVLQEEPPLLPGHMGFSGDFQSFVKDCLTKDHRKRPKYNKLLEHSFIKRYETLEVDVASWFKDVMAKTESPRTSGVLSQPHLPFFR

| SMILES | kinase still bound, per cent of control [1] [%] | kinase still bound, per cent of control [2] [%] | kinase still bound, per cent of control [3] [%] | kinase still bound, per cent of control [5] [%] | kinase still bound, per cent of control [6] [%] | kinase still bound, per cent of control [7] [%] | kinase still bound, per cent of control [8] [%] | kinase still bound, per cent of control [9] [%] | kinase still bound, per cent of control [10] [%] | kinase still bound, per cent of control [11] [%] | kinase still bound, per cent of control [12] [%] | kinase still bound, per cent of control [13] [%] | kinase still bound, per cent of control [14] [%] | kinase still bound, per cent of control [15] [%] | kinase still bound, per cent of control [16] [%] | kinase still bound, per cent of control [18] [%] | kinase still bound, per cent of control [19] [%] | kinase still bound, per cent of control [20] [%] | kinase still bound, per cent of control [21] [%] | kinase still bound, per cent of control [22] [%] | other results |
| --- | --- | --- | --- | --- | --- | --- | --- | --- | --- | --- | --- | --- | --- | --- | --- | --- | --- | --- | --- | --- | --- |
| N#C/C(=C1/Nc2ccccc2S1)c1ccnc(NCCc2cccnc2)n1 | 100 | 70 | 100 | 93 | 83 | 100 | 100 | 100 | 22 | 56 | 34 | 57 | 100 | 3.2 | 57 | 100 | 26 | 100 | 69 | 96 | kinase still bound, per cent of control [4]: 6.8%; kinase still bound, per cent of control [17]: 1.1%; kinase still bound, per cent of control [23]: 23%; kinase still bound, per cent of control [24]: 100%; kinase still bound, per cent of control [25]: 100%; kinase still bound, per cent of control [26]: 78%; kinase still bound, per cent of control [27]: 99%; kinase still bound, per cent of control [28]: 100%; kinase still bound, per cent of control [29]: 92%; kinase still bound, per cent of control [30]: 91%; kinase still bound, per cent of control [31]: 0.4%; kinase still bound, per cent of control [32]: 52%; kinase still bound, per cent of control [33]: 90%; kinase still bound, per cent of control [34]: 100%; kinase still bound, per cent of control [35]: 67%; kinase still bound, per cent of control [36]: 100%; kinase still bound, per cent of control [37]: 72% |
| CC(=O)c1c(C)c2cnc(Nc3ccc(N4CCNCC4)cn3)nc2n(C2CCCC2)c1=O | 6.8 | 7.3 | 69 | 23 | 0 | 48 | 93 | 39 | 18 | 26 | 40 | 6.5 | 100 | 4.3 | 3.2 | 26 | 57 | 8 | 1.2 | 90 | kinase still bound, per cent of control [38]: 0.35%; kinase still bound, per cent of control [23]: 3.2%; kinase still bound, per cent of control [24]: 23%; kinase still bound, per cent of control [28]: 87%; kinase still bound, per cent of control [29]: 98%; kinase still bound, per cent of control [30]: 92%; kinase still bound, per cent of control [31]: 0.05%; kinase still bound, per cent of control [32]: 38%; kinase still bound, per cent of control [33]: 20%; kinase still bound, per cent of control [35]: 62%; kinase still bound, per cent of control [36]: 7.6%; kinase still bound, per cent of control [37]: 30% |
| CCN(CCO)CCCOc1ccc2c(Nc3cc(CC(=O)Nc4cccc(F)c4)[nH]n3)ncnc2c1 | 100 | 83 | 100 | 98 | 100 | 60 | 43 | 77 | 85 | 77 | 100 | 6.8 | 1 | 39 | 79 | 37 | 100 | 88 | 69 | 100 | kinase still bound, per cent of control [38]: 41%; kinase still bound, per cent of control [4]: 100%; kinase still bound, per cent of control [17]: 100%; kinase still bound, per cent of control [23]: 86%; kinase still bound, per cent of control [24]: 11%; kinase still bound, per cent of control [25]: 100%; kinase still bound, per cent of control [26]: 100%; kinase still bound, per cent of control [27]: 74%; kinase still bound, per cent of control [28]: 91%; kinase still bound, per cent of control [29]: 78%; kinase still bound, per cent of control [30]: 100%; kinase still bound, per cent of control [31]: 84%; kinase still bound, per cent of control [32]: 64%; kinase still bound, per cent of control [33]: 84%; kinase still bound, per cent of control [34]: 100%; kinase still bound, per cent of control [35]: 99%; kinase still bound, per cent of control [36]: 98%; kinase still bound, per cent of control [37]: 100% |
